The text below walks through data of patent US20240270741A1 (Cogent Biosciences, Inc., priority 2023, published 2024).

In the assay the target is FGFR2 (Homo sapiens, UniProt P21802). The assay is described as follows: FGFR wild type enzyme assay (HTRF KinEASE-TK), FGFR2. As to conditions: Enz FGFR2 (nM), FGFR2 wild type enzyme. On the technique in general: TR-FRET usually uses a lanthanide donor and a delayed reading to cut background.
Chain of FGFR2 (P21802 399-821 limits assumed): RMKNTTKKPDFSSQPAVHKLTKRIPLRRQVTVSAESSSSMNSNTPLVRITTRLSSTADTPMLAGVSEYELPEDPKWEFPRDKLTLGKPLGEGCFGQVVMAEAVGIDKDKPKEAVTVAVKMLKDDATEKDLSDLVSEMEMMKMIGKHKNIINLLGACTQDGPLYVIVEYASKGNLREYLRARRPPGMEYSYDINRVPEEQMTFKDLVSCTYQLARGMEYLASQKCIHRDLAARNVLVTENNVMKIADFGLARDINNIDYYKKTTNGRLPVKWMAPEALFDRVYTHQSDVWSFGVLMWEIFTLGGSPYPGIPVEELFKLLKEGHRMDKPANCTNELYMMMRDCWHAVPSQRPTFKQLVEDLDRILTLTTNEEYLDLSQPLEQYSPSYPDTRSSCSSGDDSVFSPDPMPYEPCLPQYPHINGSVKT
Compound `Cc1c(-c2cc(Sc3ncccc3F)c3c(C#N)cnn3c2)cnn1[C@@H](C)[C@H](O)CO` [Example 198, 6-(1-((2S,3S)-3,4-dihydroxybutan-2-yl)-5-methyl-1H-pyrazol-4-yl)-4-((3-fluoropyridin-2-yl)thio)pyrazolo[1,5-a]pyridine-3-carbonitrile] yielded an IC50 of 21 nM.

For the compound `Cc1c(-c2cc(Sc3ccccc3C#N)c3c(C#N)cnn3c2)cnn1C1CC2CCC(C1)N2C` (centres unmarked) [Example 199, 4-((2-cyanophenyl)thio)-6-(5-methyl-1-(8-methyl-8-azabicyclo[3.2.1]octan-3-yl)-1H-pyrazol-4 yl)pyrazolo[1,5-a]pyridine-3-carbonitrile], half-maximal inhibition (IC50) required 1 nM. Under `Cc1c(-c2cc(Sc3ccccc3C#N)c3c(C#N)cnn3c2)cnn1CC1CCNCC1` [Example 200, 4-((2-cyanophenyl)thio)-6-(5-methyl-1-(piperidin-4-ylmethyl)-1H-pyrazol-4-yl)pyrazolo[1,5-a]pyridine-3-carbonitrile] stands 1 nM; under `Cc1c(-c2cc(Sc3ccccc3C#N)c3c(C#N)cnn3c2)cnn1C[C@H]1CCCNC1` [Example 201, (S)-4-((2-cyanophenyl)thio)-6-(5-methyl-1-(piperidin-3-ylmethyl)-1H-pyrazol-4-yl)pyrazolo[1,5-a]pyridine-3-carbonitrile], 2 nM; under `CC(=O)N1CCC[C@H](Cn2ncc(-c3cc(Sc4ccccc4C#N)c4c(C#N)cnn4c3)c2C)C1` [Example 202, (S)-6-(1-((1-acetylpiperidin-3-yl)methyl)-5-methyl-1H-pyrazol-4-yl)-4-((2-cyanophenyl)thio)pyrazolo [1,5-a]pyridine-3-carbonitrile], 2 nM. As to `Cc1c(-c2cc(Sc3ncccc3F)c3c(C#N)cnn3c2)cnn1C1CC2CCC(C1)N2` (centres unmarked) [Example 203, 4-[(3-fluoro-2-pyridiyl)sulfonyl]-6-[1-[1-(1-prop-2-enoylazetidine-3-carbonyl)-4-piperidyl]pyrazol-4-yl]pyrazolo[1,5-a]pyridine-3-carbonitrile], the IC50 came to 2 nM. The result for `CC(=O)N1C2CCC1CC(n1ncc(-c3cc(Sc4ncccc4F)c4c(C#N)cnn4c3)c1C)C2` (centres unmarked) [Example 204, 6-(1-(8-acetyl-8-azabicyclo[3.2.1]octan-3-yl)-5-methyl-1H-pyrazol-4-yl)-4-((3-fluoropyridin-2-yl)thio)pyrazolo[1,5-a]pyridine-3-carbonitrile] reads 2 nM; that for `CC(=O)N1CCC(Cn2ncc(-c3cc(Sc4ncccc4F)c4c(C#N)cnn4c3)c2C)CC1` [Example 205, 6-(1-((1-acetylpiperidin-4-yl)methyl)-5-methyl-1H-pyrazol-4-yl)-4-((3-fluoropyridin-2-yl)thio)pyrazolo[1,5-a]pyridine-3-carbonitrile], 3 nM. In turn, `Cc1c(-c2cc(Sc3ncccc3F)c3c(C#N)cnn3c2)cnn1C[C@H]1CCCNC1` [Example 206, (S)-4-((3-fluoropyridin-2-yl)thio)-6-(5-methyl-1-(piperidin-3-ylmethyl)-1H-pyrazol-4-yl)pyrazolo[1,5-a]pyridine-3-carbonitrile] had an IC50 of 3 nM. `CC(=O)N1CCC[C@H](Cn2ncc(-c3cc(Sc4ncccc4F)c4c(C#N)cnn4c3)c2C)C1` [Example 207, (S)-6-(1-((1-acetylpiperidin-3-yl)methyl)-5-methyl-1H-pyrazol-4-yl)-4-((3-fluoropyridin-2-yl)thio)pyrazolo[1,5-a]pyridine-3-carbonitrile] had an IC50 of 5 nM. The result for `CN[C@H]1C[C@@H](n2ncc(-c3cc(Sc4ncccc4F)c4c(C#N)cnn4c3)c2C)C1` [Example 208, 4-((3-fluoropyridin-2-yl)thio)-6-(5-methyl-1-((1s,3s)-3-(methylamino)cyclobutyl)-1H-pyrazol-4-yl)pyrazolo[1,5-a]pyridine-3-carbonitrile] reads 1 nM. The compound `Cc1c(-c2cc(Sc3ncccc3F)c3c(C#N)cnn3c2)cnn1C1CC2(CNC2)C1` [Example 209, 4-((3-fluoropyridin-2-yl)thio)-6-(5-methyl-1-(2-azaspiro[3.3]heptan-6-yl)-1H-pyrazol-4-yl)pyrazolo[1,5-a]pyridine-3-carbonitrile] registered an IC50 of 1 nM. Under `CC(=O)N1CC2(CC(n3ncc(-c4cc(Sc5ncccc5F)c5c(C#N)cnn5c4)c3C)C2)C1` [Example 210, 6-(1-(2-acetyl-2-azaspiro[3.3]heptan-6-yl)-5-methyl-1H-pyrazol-4-yl)-4-((3-fluoropyridin-2-yl)thio)pyrazolo[1,5-a]pyridine-3-carbonitrile] stands 2 nM; under `CNC1CC2(C1)CC(n1ncc(-c3cc(Sc4ncccc4F)c4c(C#N)cnn4c3)c1C)C2` (centres unmarked) [Example 211, 4-((3-fluoropyridin-2-yl)thio)-6-(5-methyl-1-(6-(methylamino)spiro[3.3]hep-tan-2-yl)-1H-pyrazol-4-yl)pyrazolo[1,5-a]pyridine-3-carbonitrile], 1 nM; under `Cc1c(-c2cc(Sc3ncccc3F)c3c(C#N)cnn3c2)cnn1C[C@H]1CC[C@@H](O)CC1` [Example 212, 4-((3-fluoropyridin-2-yl)thio)-6-(1-(((1s,4s)-4-hydroxycyclohexyl)methyl)-5-methyl-1H-pyrazol-4-yl)pyrazolo[1,5-a]pyridine-3-carbonitrile], 3 nM. Take `Cc1c(-c2cc(Sc3ncccc3F)c3c(C#N)cnn3c2)cnn1C1CCN(C(=O)C(C)(C)N(C)C)CC1` [Example 213, 6-(1-(1-(2-(dimethylamino)-2-methylpropanoyl)piperidin-4-yl)-5-methyl-1H-pyrazol-4-yl)-4-((3-fluoropyridin-2-yl)thio)pyrazolo[1,5-a]pyridine-3-carbonitrile]: the IC50 turned out to be 1.6 nM. This IC50 lies about 1.9-fold lower than the previous one. On to `Cc1c(-c2cc(Sc3ncccc3F)c3c(C#N)cnn3c2)cnn1C1CCN(C(=O)[C@@H](C)N(C)C)CC1` [Example 214, 6-(1-(1-(dimethyl-D-alanyl)piperidin-4-yl)-5-methyl-1H-pyrazol-4-yl)-4-((3-fluoropyridin-2-yl)thio)pyrazolo[1,5-a]pyridine-3-carbonitrile], for which half-maximal inhibition (IC50) required 1.6 nM.

Compound `Cc1c(-c2cc(Sc3ncccc3F)c3c(C#N)cnn3c2)cnn1C1CCN(C(=O)[C@H](C)N(C)C)CC1` [Example 215, 6-(1-(1-(dimethyl-L-alanyl)piperidin-4-yl)-5-methyl-1H-pyrazol-4-yl)-4-((3-fluoropyridin-2-yl)thio)pyrazolo[1,5-a]pyridine-3-carbonitrile] registered an IC50 of 1.6 nM. Under `Cc1c(-c2cc(Sc3ncccc3F)c3c(C#N)cnn3c2)cnn1C1CCN(Cc2ncccn2)CC1` [Example 216, 4-((3-fluoropyridin-2-yl)thio)-6-(5-methyl-1-(1-(pyrimidin-2-ylmethyl)piperidin-4-yl)-1H-pyrazol-4-yl)pyrazolo[1,5-a]pyridine-3-carbonitrile] stands 2 nM. `Cc1c(-c2cc(Sc3ncccc3F)c3c(C#N)cnn3c2)cnn1CC1CCN(CC(=O)N(C)C)CC1` [Example 217, 2-(4-((4-(3-cyano-4-((3-fluoropyridin-2-yl)thio)pyrazolo[1,5-a]pyridin-6-yl)-5-methyl-1H-pyrazol-1-yl)methyl)piperidin-1-yl)-N,N-dimethylacetamide]: the midpoint of inhibition, the IC50, lay at 6 nM. This IC50 lies about 3-fold higher than the previous one.

As to `Cc1c(-c2cc(Sc3ncccc3F)c3c(C#N)cnn3c2)cnn1[C@H](C)C1CCNCC1` [Example 218, (R)-4-((3-fluoropyridin-2-yl)thio)-6-(5-methyl-1-(1-(piperidin-4-yl)ethyl)-1H-pyrazol-4-yl)pyrazolo[1,5-a]pyridine-3-carbonitrile], inhibition was half-maximal at 3 nM (IC50). Under `Cc1c(-c2cc(Sc3ncccc3F)c3c(C#N)cnn3c2)cnn1[C@H]1CC[C@]2(CCNC2)CC1` [Example 219, 4-((3-fluoropyridin-2-yl)thio)-6-(5-methyl-1-((5s,8s)-2-azaspiro[3.4]decan-8-yl)-1H-pyrazol-4-yl)pyrazolo[1,5-a]pyridine-3-carbonitrile] stands 0.5 nM; under `CC(=O)N[C@H]1CC[C@@H](n2ncc(-c3cc(Sc4ncccc4F)c4c(C#N)cnn4c3)c2C)CC1` [Example 220, N-((1s,4S)-4-(4-(3-cyano-4-((3-fluoropyridin-2-yl)thio)pyrazolo[1,5-a]pyridin-6-yl)-5-methyl-1H-pyrazol-1-yl)cyclohexyl)acetamide], 5 nM; under `CC(=O)N1CCC(Cn2ncc(-c3cc(Sc4ccccc4C#N)c4c(C#N)cnn4c3)c2C)CC1` [Example 221, 6-(1-((1-acetylpiperidin-4-yl)methyl)-5-methyl-1H-pyrazol-4-yl)-4-((2-cyanophenyl)thio)pyrazolo [1,5-a]pyridin-3-carbonitrile], 1 nM.

Regarding `Cc1c(-c2cc(Sc3ncccc3F)c3c(C#N)cnn3c2)cnn1CC1CCNCC1` [Example 222, 4-((3-fluoropyridin-2-yl)thio)-6-(5-methyl-1-(piperidin-4-ylmethyl)-1H-pyrazol-4-yl)pyrazolo[1,5-a]pyridine-3-carbonitrile], the IC50 was found to be 5 nM. The result for `Cc1c(-c2cc(Sc3ncccc3F)c3c(C#N)cnn3c2)cnn1[C@@H]1CCNC[C@H]1F` [Example 223] reads 8 nM; that for `CC(=O)N1CCC[C@@H](Cn2ncc(-c3cc(Sc4ccccc4C#N)c4c(C#N)cnn4c3)c2C)C1` [Example 224, (R)-6-(1-((1-acetylpiperidin-3-yl)methyl)-5-methyl-1H-pyrazol-4-yl)-4-((2-cyanophenyl)thio)pyrazolo [1,5-a]pyridine-3-carbonitrile], 8 nM. Compound `CC(=O)N1CC[C@]2(CC[C@@H](n3ncc(-c4cc(Sc5ncccc5F)c5c(C#N)cnn5c4)c3C)CC2)C1` [Example 225, 6-(1-((5r,8r)-2-acetyl-2-azaspiro[4.5]decan-8-yl)-5-methyl-1H-pyrazol-4-y)-4-((3-fluoropyridin-2-yl)thio)pyrazolo[1,5-a]pyridine-3-carbonitrile] displayed an IC50 of 1 nM. `Cc1c(-c2cc(Sc3ncccc3F)c3c(C#N)cnn3c2)cnn1[C@@H]1C[C@H]2CNC[C@H]2C1` [Example 226, 4-((3-fluoropyridin-2-yl)thio)-6-(5-methyl-1-((3sR,5s,6aS)-octahydrocyclopenta[c]pyr-rol-5-yl)-1H-pyrazol-4-yl)pyrazolo[1,5-a]pyridine-3-carbonitrile] gave an IC50 of 1 nM. This counts as single-digit nanomolar.

A word on the IC50: it is the midpoint of a concentration-inhibition curve. A higher IC50 goes with a need for much substance.
